Data published in patent US10160755B2 (Plexxikon Inc., priority 2015, dated 2018).

Columns and labels:
FLT3-D835Y = biological target: T1, FLT3-D835Y (Homo sapiens, UniProt P36888, D835Y); experiment: FLT3-D835Y biochemical kinase assay (AlphaScreen)
T1 construct: purchased Invitrogen PV3967
T1 sequence (P36888 27-993 D835Y): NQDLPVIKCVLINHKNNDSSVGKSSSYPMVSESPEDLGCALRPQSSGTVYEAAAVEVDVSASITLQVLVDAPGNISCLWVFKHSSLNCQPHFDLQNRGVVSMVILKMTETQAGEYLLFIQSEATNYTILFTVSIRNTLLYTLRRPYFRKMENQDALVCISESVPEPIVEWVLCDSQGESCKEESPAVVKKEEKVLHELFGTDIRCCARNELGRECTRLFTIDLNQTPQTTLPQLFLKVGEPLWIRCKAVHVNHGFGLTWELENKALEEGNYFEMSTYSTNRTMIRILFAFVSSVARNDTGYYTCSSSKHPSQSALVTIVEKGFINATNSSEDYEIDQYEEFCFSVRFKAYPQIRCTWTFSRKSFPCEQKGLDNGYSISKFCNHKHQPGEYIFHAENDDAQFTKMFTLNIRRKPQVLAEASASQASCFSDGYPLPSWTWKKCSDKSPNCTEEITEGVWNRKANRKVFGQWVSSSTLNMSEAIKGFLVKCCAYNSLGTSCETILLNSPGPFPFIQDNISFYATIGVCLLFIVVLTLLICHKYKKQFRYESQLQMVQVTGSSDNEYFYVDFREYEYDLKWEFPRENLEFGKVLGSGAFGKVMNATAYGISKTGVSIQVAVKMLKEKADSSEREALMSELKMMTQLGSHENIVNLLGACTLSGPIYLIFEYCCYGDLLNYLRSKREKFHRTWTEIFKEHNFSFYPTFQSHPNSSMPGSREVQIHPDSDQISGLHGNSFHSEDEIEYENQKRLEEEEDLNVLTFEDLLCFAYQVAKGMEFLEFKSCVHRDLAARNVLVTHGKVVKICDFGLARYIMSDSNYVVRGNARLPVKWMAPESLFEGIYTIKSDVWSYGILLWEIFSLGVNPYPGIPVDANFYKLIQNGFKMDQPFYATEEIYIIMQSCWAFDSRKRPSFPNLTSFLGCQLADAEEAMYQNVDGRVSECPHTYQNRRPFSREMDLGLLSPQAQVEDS
Method in brief: (§1)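 First, recombinant FLT3 variant phosphorylates a biotinylated poly(Glu4-Tyr) peptide (30 nM) with ATP at 10 μM (D835Y) or 100 μM (ITD). Streptavidin donor beads are then added for 20 min at room temperature, followed by anti-phosphotyrosine PY20 acceptor beads for 60 min. Signal at 580 nm gives IC50.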

c-Kit = c-Kit (Homo sapiens, UniProt P10721); experiment: c-Kit biochemical assay (per US 2007/0032519)
Sequence of c-Kit (P10721 26-976): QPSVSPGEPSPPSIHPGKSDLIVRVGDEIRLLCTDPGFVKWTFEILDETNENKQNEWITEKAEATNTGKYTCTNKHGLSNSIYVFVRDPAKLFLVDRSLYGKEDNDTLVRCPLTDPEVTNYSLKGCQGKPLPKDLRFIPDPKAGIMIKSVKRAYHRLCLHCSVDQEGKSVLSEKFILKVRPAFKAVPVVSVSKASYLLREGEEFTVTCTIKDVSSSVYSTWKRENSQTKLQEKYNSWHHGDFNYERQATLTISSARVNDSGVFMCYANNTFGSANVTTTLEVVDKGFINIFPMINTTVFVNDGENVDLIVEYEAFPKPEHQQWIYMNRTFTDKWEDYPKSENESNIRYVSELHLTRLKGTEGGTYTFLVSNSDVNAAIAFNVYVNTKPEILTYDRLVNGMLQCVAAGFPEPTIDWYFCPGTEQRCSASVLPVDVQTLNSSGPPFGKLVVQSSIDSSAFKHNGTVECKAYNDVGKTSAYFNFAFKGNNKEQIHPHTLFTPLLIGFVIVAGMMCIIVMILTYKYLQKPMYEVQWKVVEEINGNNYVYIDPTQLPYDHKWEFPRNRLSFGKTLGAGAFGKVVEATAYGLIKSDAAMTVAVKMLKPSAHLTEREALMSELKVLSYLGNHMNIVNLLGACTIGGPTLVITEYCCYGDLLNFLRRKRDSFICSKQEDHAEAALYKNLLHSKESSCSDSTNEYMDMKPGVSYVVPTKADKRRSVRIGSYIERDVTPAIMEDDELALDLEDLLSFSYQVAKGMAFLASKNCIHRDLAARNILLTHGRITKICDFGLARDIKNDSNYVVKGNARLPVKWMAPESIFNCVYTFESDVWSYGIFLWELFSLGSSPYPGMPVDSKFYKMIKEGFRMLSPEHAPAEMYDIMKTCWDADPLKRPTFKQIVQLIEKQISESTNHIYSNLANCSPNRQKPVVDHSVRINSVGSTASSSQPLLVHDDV
Method in brief: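 Biochemical kinase inhibition run per US 2007/0032519; values reported as binned IC50 ranges (0.0001–1 μM, 1–10 μM, 10–200 μM).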

FLT3-ITD = biological target: T2, FLT3-ITD (Homo sapiens, UniProt P36888); experiment: FLT3-ITD biochemical kinase assay (AlphaScreen)
T2 construct: FLT3-ITD; Invitrogen #PV6190
T2 sequence (P36888 1-993): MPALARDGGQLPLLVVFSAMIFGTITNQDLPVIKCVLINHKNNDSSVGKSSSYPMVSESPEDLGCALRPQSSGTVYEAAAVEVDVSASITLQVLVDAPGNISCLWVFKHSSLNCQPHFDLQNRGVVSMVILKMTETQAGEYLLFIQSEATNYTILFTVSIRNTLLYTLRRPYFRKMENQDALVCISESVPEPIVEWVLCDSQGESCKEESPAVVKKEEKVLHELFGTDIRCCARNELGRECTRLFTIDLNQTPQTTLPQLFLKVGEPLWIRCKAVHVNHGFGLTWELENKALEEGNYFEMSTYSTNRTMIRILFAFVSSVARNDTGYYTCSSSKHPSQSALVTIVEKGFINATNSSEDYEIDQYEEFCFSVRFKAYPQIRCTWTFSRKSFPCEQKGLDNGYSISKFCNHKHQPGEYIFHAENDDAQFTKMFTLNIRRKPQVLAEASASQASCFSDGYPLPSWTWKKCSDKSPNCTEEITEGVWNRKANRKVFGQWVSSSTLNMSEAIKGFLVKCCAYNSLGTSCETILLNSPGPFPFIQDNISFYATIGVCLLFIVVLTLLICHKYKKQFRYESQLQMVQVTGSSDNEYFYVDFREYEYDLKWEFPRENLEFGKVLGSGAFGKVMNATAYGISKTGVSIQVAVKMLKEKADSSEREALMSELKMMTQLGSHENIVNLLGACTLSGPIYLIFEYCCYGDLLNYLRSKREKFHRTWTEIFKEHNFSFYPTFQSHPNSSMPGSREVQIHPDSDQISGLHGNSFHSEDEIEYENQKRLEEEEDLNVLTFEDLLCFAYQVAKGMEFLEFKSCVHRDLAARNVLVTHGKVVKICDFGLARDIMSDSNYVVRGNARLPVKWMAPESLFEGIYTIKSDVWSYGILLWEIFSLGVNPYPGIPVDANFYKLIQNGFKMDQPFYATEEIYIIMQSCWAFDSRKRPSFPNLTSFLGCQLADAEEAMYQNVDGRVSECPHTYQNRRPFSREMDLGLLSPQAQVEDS
Method in brief: as §1

| Compound | IC50 (FLT3-D835Y) [µM] | IC50 (c-Kit) [µM] | IC50 (FLT3-ITD) [µM] |
| --- | --- | --- | --- |
| N#Cc1cnc2[nH]cc(-c3ccc4nc[nH]c4c3)c2c1 [P-023, 3-(3H-benzimidazol-5-yl)-1H-pyrrolo[2,3-b]pyridine-5-carbonitrile] | 1 to 10 | 1 to 10 | 0.0001 to 1 |
| c1cnc2[nH]cc(-c3ccc4[nH]nnc4c3)c2c1 [P-005, 5-(1H-pyrrolo[2,3-b]pyridin-3-yl)-1H-benzotriazole] | 10 to 200 | 10 to 200 | 1 to 10 |
| COc1cc(-c2cnc3[nH]cc(-c4ccc5ncn(C)c5c4)c3c2)cc(C)n1 [P-124, 5-(2-methoxy-6-methyl-4-pyridyl)-3-(3-methylbenzimidazol-5-yl)-1H-pyrrolo[2,3-b]pyridine] | 0.0001 to 1 | 10 to 200 | 0.0001 to 1 |
| CC(C)n1cc(-c2cnc3[nH]cc(-c4ccc5ncn(C(C)(C)C)c5c4)c3n2)cn1 [P-382, 7-(3-tert-butylbenzimidazol-5-yl)-2-(1-isopropylpyrazol-4-yl)-5H-pyrrolo[2,3-b]pyrazine] | 0.0001 to 1 | 0.0001 to 1 | 0.0001 to 1 |
| Cn1cnc2ccc(-c3c[nH]c4ncc(-c5cccc(NS(C)(=O)=O)c5)nc34)cc21 [P-038, N-[3-[7-(3-methylbenzimidazol-5-yl)-5H-pyrrolo[2,3-b]pyrazin-2-yl]phenyl]methanesulfonamide] | 0.0001 to 1 | 10 to 200 | 0.0001 to 1 |
| O=C(C1CC1)N1CC=C(c2cnc3[nH]cc(-c4ccc5[nH]cnc5c4)c3c2)CC1 [P-017, [4-[3-(1H-benzimidazol-5-yl)-1H-pyrrolo[2,3-b]pyridin-5-yl]-3,6-dihydro-2H-pyridin-1-yl]-cyclopropyl-methanone] | 0.0001 to 1 | 1 to 10 | 0.0001 to 1 |
| CC(C)(C)n1cnc2ccc(-c3c[nH]c4ncc(-c5ccnc(F)c5)nc34)cc21 [P-384, 7-(3-tert-butylbenzimidazol-5-yl)-2-(2-fluoro-4-pyridyl)-5H-pyrrolo[2,3-b]pyrazine] | 0.0001 to 1 | 0.0001 to 1 | 0.0001 to 1 |
| CNS(=O)(=O)c1cccc(-c2cnc3[nH]cc(-c4ccc5ncn(C)c5c4)c3c2)c1 [P-046, N-methyl-3-[3-(3-methylbenzimidazol-5-yl)-1H-pyrrolo[2,3-b]pyridin-5-yl]benzenesulfonamide] | 0.0001 to 1 | 10 to 200 | 0.0001 to 1 |
| CCCS(=O)(=O)Nc1cccc(-c2cnc3[nH]cc(-c4ccc5ncn(C)c5c4)c3c2)c1 [P-121, N-[3-[3-(3-methylbenzimidazol-5-yl)-1H-pyrrolo[2,3-b]pyridin-5-yl]phenyl]propane-1-sulfonamide] | 0.0001 to 1 | 1 to 10 | 0.0001 to 1 |
| CS(=O)(=O)Nc1cccc(-c2cnc3[nH]cc(-c4ccc5ncsc5c4)c3n2)c1 [P-054, N-[3-[7-(1,3-benzothiazol-6-yl)-5H-pyrrolo[2,3-b]pyrazin-2-yl]phenyl]methanesulfonamide] | 0.0001 to 1 | 1 to 10 | 0.0001 to 1 |
| COc1cc(-c2cnc3[nH]cc(-c4ccc5ncn(C)c5c4)c3c2)cc(OC)n1 [P-123, 5-(2,6-dimethoxy-4-pyridyl)-3-(3-methylbenzimidazol-5-yl)-1H-pyrrolo[2,3-b]pyridine] | 0.0001 to 1 | 10 to 200 | 0.0001 to 1 |
| COC(=O)c1cc(-c2cnc3[nH]cc(-c4ccc5ncn(C)c5c4)c3c2)ccc1C [P-119] | 0.0001 to 1 | 10 to 200 | 0.0001 to 1 |
| CCn1cnc2ccc(-c3c[nH]c4ncc(OC)cc34)cc21 [P-048, 1-ethyl-6-(5-methoxy-1H-pyrrolo[2,3-b]pyridin-3-yl)benzimidazole] | 0.0001 to 1 | 10 to 200 | 0.0001 to 1 |
| CS(=O)(=O)Nc1cccc(-c2cnc3[nH]cc(-c4ccc5c(c4)NCCO5)c3n2)c1 [P-085, N-[3-[7-(3,4-dihydro-2H-1,4-benzoxazin-6-yl)-5H-pyrrolo[2,3-b]pyrazin-2-yl]phenyl]methanesulfonamide] | 0.0001 to 1 | 1 to 10 | 0.0001 to 1 |
| COc1ccc(-c2cnc3[nH]cc(-c4ccc5[nH]cnc5c4)c3c2)cn1 [P-024, 3-(1H-benzimidazol-5-yl)-5-(6-methoxy-3-pyridyl)-1H-pyrrolo[2,3-b]pyridine] | 0.0001 to 1 | 1 to 10 | 0.0001 to 1 |
| CS(=O)(=O)Nc1cccc(-c2cnc3[nH]cc(-c4ccc5ncsc5c4)c3c2)c1 [P-053, N-[3-[3-(1,3-benzothiazol-6-yl)-1H-pyrrolo[2,3-b]pyridin-5-yl]phenyl]methanesulfonamide] | 0.0001 to 1 | 1 to 10 | 0.0001 to 1 |
| CS(=O)(=O)Nc1cccc(-c2cnc3[nH]cc(-c4ccc5c(c4)OC(F)(F)O5)c3n2)c1 [P-064, N-[3-[7-(2,2-difluoro-1,3-benzodioxol-5-yl)-5H-pyrrolo[2,3-b]pyrazin-2-yl]phenyl]methanesulfonamide] | 1 to 10 | 10 to 200 | 1 to 10 |
| Cc1cnc2[nH]cc(-c3ccc4nc[nH]c4c3)c2c1 [P-021, 3-(3H-benzimidazol-5-yl)-5-methyl-1H-pyrrolo[2,3-b]pyridine] | 0.0001 to 1 | 1 to 10 | 0.0001 to 1 |
| CC(C)S(=O)(=O)Nc1cccc(-c2cnc3[nH]cc(-c4ccc5ncn(C)c5c4)c3c2)c1 [P-096, N-[3-[3-(3-methylbenzimidazol-5-yl)-1H-pyrrolo[2,3-b]pyridin-5-yl]phenyl]propane-2-sulfonamide] | 0.0001 to 1 | 1 to 10 | 0.0001 to 1 |
| CNS(=O)(=O)c1cccc(-c2cnc3[nH]cc(-c4ccc5ncn(C)c5c4)c3n2)c1 [P-057, N-methyl-3-[7-(3-methylbenzimidazol-5-yl)-5H-pyrrolo[2,3-b]pyrazin-2-yl]benzenesulfonamide] | 0.0001 to 1 | 1 to 10 | 0.0001 to 1 |
| CC(C)(C)n1cnc2ccc(-c3c[nH]c4ncc(C5=CCN(C(=O)C6CC6)C5)cc34)cc21 [P-134, [3-[3-(3-tert-butylbenzimidazol-5-yl)-1H-pyrrolo[2,3-b]pyridin-5-yl]-2,5-dihydropyrrol-1-yl]-cyclopropyl-methanone] | 0.0001 to 1 | 10 to 200 | 0.0001 to 1 |
| O=C(C1CC1)N1CC=C(c2cnc3[nH]cc(-c4ccc5ncn(C6CCCC6)c5c4)c3n2)C1 [P-126, [3-[7-(3-cyclopentylbenzimidazol-5-yl)-5H-pyrrolo[2,3-b]pyrazin-2-yl]-2,5-dihydropyrrol-1-yl]-cyclopropyl-methanone] | 0.0001 to 1 | 10 to 200 | 0.0001 to 1 |
| COc1cnc2[nH]cc(-c3ccc4[nH]c(C)nc4c3)c2c1 [P-015, 5-methoxy-3-(2-methyl-1H-benzimidazol-5-yl)-1H-pyrrolo[2,3-b]pyridine] | 1 to 10 | 10 to 200 | 0.0001 to 1 |
